Measured values published in ChEMBL document CHEMBL1201862, “PubChem BioAssay data set” (2004).
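Five concentrations, 48 hours, 96-well plates. Abbreviation: GI50, concentration required for 50% inhibition of growth.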 Active and inactive are the calls of the source. No stated cut-off is given here; in the data, active = GI50 up to about 1.1 µM and inactive = higher.

Key:
Test in all cases: NCI-60 cell line screen, 48 h
[1] = system: SN12C
[2] = system: COLO 205
[3] = system: OVCAR-4
[4] = system: M14
[5] = system: HOP-92
[6] = system: IGROV-1
[7] = system: OVCAR-3
[8] = system: SR
[9] = system: HCT-116
[10] = system: K562
[11] = system: MOLT-4
[12] = system: HOP-62
[13] = system: UO-31
[14] = system: UACC-257
[15] = system: CCRF-CEM
[16] = system: SK-OV-3
[17] = system: SF-268
[18] = system: NCI-H522

Measured: GI50

Cc1ccc(S(=O)(=O)OC[C@@H]2CO2)cc1
inactive: [1] > 100 µM | [2] > 100 µM | [3] > 100 µM | [4] > 100 µM | [5] > 100 µM | [6] > 100 µM | [7] > 100 µM | [8] > 100 µM | [9] > 100 µM | [10] > 100 µM | [11] > 100 µM | [12] > 100 µM | [13] > 100 µM | [14] > 100 µM | [15] > 100 µM

CCOCNC(=O)N(COCC)COCC
inactive: [1] > 100 µM | [2] > 100 µM | [4] > 100 µM | [6] > 100 µM | [7] 33 µM | [9] > 100 µM | [10] > 100 µM | [11] > 100 µM | [16] > 100 µM | [12] > 100 µM | [17] > 100 µM | [13] > 100 µM | [18] > 100 µM | [14] > 100 µM | [15] > 100 µM

CN1NC(c2ccc(Cl)cc2)=C(C#N)C(=O)CC1c1ccccc1 (centres undefined)
inactive: [2] > 100 µM | [3] > 100 µM | [5] > 100 µM | [8] > 100 µM | [9] > 100 µM | [16] > 100 µM | [17] > 100 µM | [18] 79.4 µM | [14] > 100 µM

O=C(Cc1nc2ccc(C(=O)c3ccccc3)cc2nc1O)C(=O)Nc1nc2ccccc2[nH]1
inactive: [1] > 100 µM | [2] 36.8 µM | [3] 61.7 µM | [4] 82.6 µM | [5] 23 µM | [6] 93.5 µM | [7] 62.5 µM | [8] 11.7 µM | [9] 51.6 µM | [11] 42.8 µM | [16] > 100 µM | [12] 33.3 µM | [17] 67 µM | [13] 60.3 µM | [18] 30 µM | [14] 84.5 µM | [15] 38.3 µM

NC(=O)CCC(NCc1c2ccccc2[n+]([O-])c2ccccc12)C(=O)O (centres undefined)
inactive: [1] > 100 µM | [2] > 100 µM | [3] 40.1 µM | [4] > 100 µM | [6] > 100 µM | [7] > 100 µM | [9] 30.8 µM | [10] 36.3 µM | [11] 30 µM | [16] > 100 µM | [12] > 100 µM | [17] 59.2 µM | [13] 59 µM | [18] 70 µM | [14] > 100 µM | [15] 35.6 µM

CCOC(=O)C(Cc1ccc(N=NN(C)C)cc1)NC(=O)CC1c2ccccc2-c2ccccc21 (centres undefined)
inactive: [1] > 100 µM | [2] 92.7 µM | [3] > 100 µM | [4] > 100 µM | [6] 69.8 µM | [7] 36.1 µM | [8] 48.9 µM | [9] > 100 µM | [10] 75.2 µM | [11] 38.3 µM | [16] > 100 µM | [12] > 100 µM | [17] > 100 µM | [13] > 100 µM | [18] 56.2 µM | [14] > 100 µM | [15] 62.8 µM

c1ccc(-c2nnc(-c3nsc4ccccc34)o2)cc1
inactive: [1] > 100 µM | [2] > 100 µM | [3] > 100 µM | [4] > 100 µM | [5] 18.4 µM | [6] 60.4 µM | [7] > 100 µM | [9] > 100 µM | [10] > 100 µM | [11] > 100 µM | [12] > 100 µM | [17] > 100 µM | [13] 19.5 µM | [14] > 100 µM | [15] > 100 µM
